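Where inhibition never reached the appropriate level, the endpoint shown equals the highest concentration tested. Otherwise, values were interpolated linearly from a five-concentration, 48-hour dose response in 96-well plates. TGI marks complete inhibition of growth.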
Columns and labels:
Assay in all cases: DTP human tumour cell line panel, 48 h
[1] = test system: A498 renal
[2] = test system: ACHN renal
[3] = test system: BT-549 breast
[4] = test system: CAKI-1 renal
[5] = test system: COLO 205 colon
[6] = test system: DU-145 prostate
[7] = test system: EKVX NSCLC
[8] = test system: HCT-15 colon
[9] = test system: HOP-62 NSCLC
[10] = test system: HOP-92 NSCLC
[11] = test system: KM12 colon
[12] = test system: M14 melanoma
[13] = test system: MALME-3M melanoma
[14] = test system: MCF7 breast
[15] = test system: MDA-MB-435
[16] = test system: MDA-N
[17] = test system: NCI-H23 lung
[18] = test system: NCI-H522 lung
[19] = test system: NCI/ADR-RES ovarian
[20] = test system: OVCAR-4 ovarian
[21] = test system: PC-3 prostate
[22] = test system: SF-268 CNS
[23] = test system: SF-295 CNS
[24] = test system: SK-MEL-2 melanoma
[25] = test system: SK-MEL-28 melanoma
[26] = test system: SK-OV-3 ovarian
[27] = test system: SN12C renal
[28] = test system: SNB-75 CNS
[29] = test system: SR leukemia
[30] = test system: SW-620 colon
[31] = test system: T-47D breast
[32] = test system: TK-10 renal
[33] = test system: U251 CNS
[34] = test system: UACC-62 melanoma
[35] = test system: UO-31 renal
[36] = test system: 786-0 renal
[37] = test system: A549 NSCLC
[38] = test system: HCC-2998 colon
[39] = test system: HCT-116 colon
[40] = test system: HS 578T breast
[41] = test system: HT29 colon
[42] = test system: IGROV1 ovarian
[43] = test system: K-562 leukemia
[44] = test system: MDA-MB-231 breast
[45] = test system: MOLT-4 leukemia
[46] = test system: NCI-H460 lung
[47] = test system: OVCAR-3 ovarian
[48] = test system: OVCAR-5 ovarian
[49] = test system: OVCAR-8 ovarian
[50] = test system: RPMI-8226 leukemia
[51] = test system: RXF 393 renal
[52] = test system: SK-MEL-5 melanoma
[53] = test system: SNB-19 CNS
[54] = test system: UACC-257 melanoma
[55] = test system: CCRF-CEM leukemia
[56] = test system: HL-60(TB) leukemia
[57] = test system: LOX IMVI melanoma
[58] = test system: NCI-H226 lung
[59] = test system: SF-539 CNS

SMILES: COc1cc2cc(C(=O)N3CC(CCl)c4c3cc(NCCN)c3ccccc43)[nH]c2c(OC)c1OC (stereo not given)
- TGI [1]: < 0.0136 µM
- TGI [2]: < 0.01 µM
- TGI [3]: 0.0817 µM
- TGI [4]: < 0.01 µM
- TGI [5]: < 0.01 µM
- TGI [6]: 1.07 µM
- TGI [7]: 0.0789 µM
- TGI [8]: 0.0536 µM
- TGI [9]: < 0.0221 µM
- TGI [10]: < 0.01 µM
- TGI [11]: < 0.01 µM
- TGI [12]: < 0.0121 µM
- TGI [13]: < 0.0134 µM
- TGI [14]: < 0.01 µM
- TGI [15]: < 0.01 µM
- TGI [16]: < 0.0203 µM
- TGI [17]: < 0.01 µM
- TGI [18]: < 0.01 µM
- TGI [19]: 0.0799 µM
- TGI [20]: 0.054 µM
- TGI [21]: < 0.0328 µM
- TGI [22]: 0.484 µM
- TGI [23]: < 0.0468 µM
- TGI [24]: < 0.01 µM
- TGI [25]: 0.564 µM
- TGI [26]: 1.42 µM
- TGI [27]: < 0.017 µM
- TGI [28]: 0.0479 µM
- TGI [29]: > 100 µM
- TGI [30]: 0.311 µM
- TGI [31]: 1.07 µM
- TGI [32]: < 0.0181 µM
- TGI [33]: < 0.01 µM
- TGI [34]: < 0.01 µM
- TGI [35]: < 0.0132 µM

SMILES: CCOP(=O)(Nc1ccccc1P(=O)(OCC)OCC)OCC
- TGI [36]: > 100 µM
- TGI [1]: > 100 µM
- TGI [37]: > 100 µM
- TGI [2]: > 100 µM
- TGI [3]: > 100 µM
- TGI [4]: > 100 µM
- TGI [5]: > 100 µM
- TGI [6]: > 100 µM
- TGI [7]: > 100 µM
- TGI [38]: > 100 µM
- TGI [39]: > 100 µM
- TGI [8]: > 100 µM
- TGI [9]: > 100 µM
- TGI [10]: > 100 µM
- TGI [40]: > 100 µM
- TGI [41]: > 100 µM
- TGI [42]: > 100 µM
- TGI [43]: > 100 µM
- TGI [11]: > 100 µM
- TGI [12]: > 100 µM
- TGI [13]: > 100 µM
- TGI [14]: > 100 µM
- TGI [44]: > 100 µM
- TGI [15]: > 100 µM
- TGI [16]: > 100 µM
- TGI [45]: > 100 µM
- TGI [17]: > 100 µM
- TGI [46]: > 100 µM
- TGI [18]: > 100 µM
- TGI [19]: > 100 µM
- TGI [47]: > 100 µM
- TGI [20]: > 100 µM
- TGI [48]: > 100 µM
- TGI [49]: > 100 µM
- TGI [21]: > 100 µM
- TGI [50]: > 100 µM
- TGI [51]: > 100 µM
- TGI [22]: > 100 µM
- TGI [23]: > 100 µM
- TGI [24]: > 100 µM
- TGI [25]: > 100 µM
- TGI [52]: > 100 µM
- TGI [26]: > 100 µM
- TGI [53]: > 100 µM
- TGI [28]: > 100 µM
- TGI [30]: > 100 µM
- TGI [32]: > 100 µM
- TGI [33]: > 100 µM
- TGI [54]: > 100 µM
- TGI [34]: > 100 µM
- TGI [35]: > 100 µM

SMILES: O=[N+]1ON=C(c2ccccc2)C1=C1C(c2c(-c3ccccc3)no[n+]2[O-])=NON1[O-]
- TGI [36]: 31.2 µM
- TGI [1]: 43.7 µM
- TGI [37]: > 100 µM
- TGI [2]: 27.4 µM
- TGI [4]: 56.7 µM
- TGI [55]: > 100 µM
- TGI [5]: 25.4 µM
- TGI [6]: > 100 µM
- TGI [7]: > 100 µM
- TGI [38]: > 100 µM
- TGI [39]: 16.2 µM
- TGI [56]: 7.52 µM
- TGI [9]: 55.1 µM
- TGI [10]: 70.1 µM
- TGI [40]: > 100 µM
- TGI [41]: 24.8 µM
- TGI [42]: > 100 µM
- TGI [43]: 10.6 µM
- TGI [11]: > 100 µM
- TGI [57]: 8.67 µM
- TGI [12]: > 100 µM
- TGI [13]: 51.3 µM
- TGI [14]: 7.51 µM
- TGI [44]: 95.9 µM
- TGI [15]: 6.56 µM
- TGI [16]: 10.5 µM
- TGI [45]: > 100 µM
- TGI [58]: 62.5 µM
- TGI [17]: 20.7 µM
- TGI [46]: 68.7 µM
- TGI [18]: > 100 µM
- TGI [19]: > 100 µM
- TGI [47]: 30.6 µM
- TGI [20]: 9.79 µM
- TGI [48]: > 100 µM
- TGI [49]: > 100 µM
- TGI [21]: 11.3 µM
- TGI [50]: > 100 µM
- TGI [51]: 10.1 µM
- TGI [22]: > 100 µM
- TGI [23]: > 100 µM
- TGI [59]: 73.4 µM
- TGI [25]: > 100 µM
- TGI [52]: > 100 µM
- TGI [26]: > 100 µM
- TGI [27]: > 100 µM
- TGI [53]: > 100 µM
- TGI [28]: 33.2 µM
- TGI [29]: > 100 µM
- TGI [30]: > 100 µM
- TGI [32]: > 100 µM
- TGI [54]: 67.3 µM
- TGI [34]: 51.2 µM
- TGI [35]: 48.6 µM

SMILES: CC(=O)OC12c3ccccc3-c3ccccc3C1C(C(=O)O)C2(Cl)C(=O)O (stereo not given)
- TGI [36]: > 10 µM
- TGI [1]: > 10 µM
- TGI [2]: > 10 µM
- TGI [4]: > 10 µM
- TGI [55]: > 10 µM
- TGI [5]: > 10 µM
- TGI [6]: > 10 µM
- TGI [7]: > 10 µM
- TGI [38]: > 10 µM
- TGI [8]: > 10 µM
- TGI [56]: > 10 µM
- TGI [9]: > 10 µM
- TGI [10]: > 10 µM
- TGI [40]: > 10 µM
- TGI [41]: > 10 µM
- TGI [42]: > 10 µM
- TGI [43]: > 10 µM
- TGI [11]: > 10 µM
- TGI [57]: > 10 µM
- TGI [12]: > 10 µM
- TGI [13]: > 10 µM
- TGI [14]: > 10 µM
- TGI [44]: > 10 µM
- TGI [15]: > 10 µM
- TGI [16]: > 10 µM
- TGI [45]: > 10 µM
- TGI [58]: > 10 µM
- TGI [17]: > 10 µM
- TGI [46]: > 10 µM
- TGI [18]: > 10 µM
- TGI [19]: > 10 µM
- TGI [47]: > 10 µM
- TGI [20]: > 10 µM
- TGI [48]: > 10 µM
- TGI [49]: > 10 µM
- TGI [21]: > 10 µM
- TGI [50]: > 10 µM
- TGI [51]: > 10 µM
- TGI [22]: > 10 µM
- TGI [23]: > 10 µM
- TGI [59]: > 10 µM
- TGI [24]: > 10 µM
- TGI [25]: > 10 µM
- TGI [52]: > 10 µM
- TGI [26]: > 10 µM
- TGI [27]: > 10 µM
- TGI [53]: > 10 µM
- TGI [28]: > 10 µM
- TGI [29]: > 10 µM
- TGI [30]: > 10 µM
- TGI [31]: > 10 µM
- TGI [32]: > 10 µM
- TGI [33]: > 10 µM
- TGI [54]: > 10 µM
- TGI [35]: > 10 µM

— PubChem BioAssay (NCI)
